Laboratory results: patent US20150110716A1, “METHODS OF USING SPECT/CT ANALYSIS FOR STAGING CANCER” (Molecular Insight Pharmaceuticals, Inc., priority 2013, published 2015)
Where “and” joins values, the source holds several entries; their conditions need not be identical. Identical values can stand only once.

How the values were obtained:
Format in all cases: in vivo, human
[1] = tested on: high-grade prostate cancer in lobes and segments of the prostate gland; experiment: Phase 1 study: SPECT/CT T/B ratio (threshold 5.9) vs step-section histopathology
Text: Protocol for Determining the Optimal Threshold Value for Discriminating Low Grade Prostate Cancer from a Higher Grade Prostate Cancer. Methods: SPECT/CT images of the pelvis including the prostate gland were obtained with a hybrid gamma camera in a 128×128 pixel matrix format with a 360 degree circular or elliptical orbit acquired into 120-128 frames. Raw images were reconstructed into 3D space with an iterative ordered subset estimation maximization algorithm corrected for attenuation and resolution recovery. […] Circular regions of interest with a diameter of approximately 20 pixels were placed on the obturator muscle adjacent to and to the left side (patient left) of the prostate gland. Counts within that region were recorded as background. Axial slices through the lower third, middle and upper third of the gland were selected to sample the apex, mid-gland and base of the prostate respectively. Radioactivity counts form the right and left side of the gland for each of the three slices were obtained for the same sized circular region of interest as background. The target to background ratio (T/B) was obtained by dividing the counts from prostate tissue by the background count. When large intense lesions originating in one side of the gland crossed the midline due to morphological changes to the anatomy, the area was scored according to the site of origin.
The suitability of a compound represented by Formula (1) to detect and discriminate between tumor tissue and normal tissue was tested in a Phase 1 study by comparing the SPECT/CT images obtained using a compound represented by Formula (1) with step-section histopathology in 8 patients (pts) undergoing radical prostatectomy. Briefly, 8 patients were administered 20mCi of the Formula (1) compound and SPECT/CT images of the pelvis were acquired 2 hours after injection. The T/B ratio was calculated for six segments of the prostate gland based on the images. Imaging results in segments and right and left lobes of the prostate were compared with Primary Gleason Grades (PGG) and total Gleason Scores (GS) recorded by a blinded pathologist. Sensitivity, specificity, accuracy for a T/B threshold of 5.9 were calculated by a receiver operator curve as explained above.

[2] = tested on: metastatic prostate cancer in pelvic lymph nodes; experiment: Phase 2 study: SPECT/CT detection of pelvic lymph node involvement vs histopathology
Protocol: A phase-2 study to image men with high-risk prostate cancer scheduled for radical prostatectomy (RP) and Extended Pelvic Lymph Node Dissection (EPLND) was performed using a compound according to Formula (1), as an illustrative radioimaging agent. The primary objective of the study was to assess the safety and the ability of the Formula (1) compound to detect prostate cancer within the prostate gland. Secondary objectives include (i) assess the ability of the Formula (1) compound to detect the extent and location of prostate cancer within the prostate gland, (2) assess the ability of the Formula (1) compound to detect metastatic PCa within pelvic lymph nodes and to further detect the specific location of metastatic PCa within anatomic pelvic lymph node regions, (3) compare the performance of the Formula (1) compound as a prostate cancer imaging agent to MRI and compare the ability of the Formula (1) compound to detect the specific location of metastatic PCa within pelvic lymph nodes to the ability of MRI for detecting the specific location of metastatic PCa within pelvic lymph nodes.
A Phase-2 multi-center, multi-reader, open-label trial, to assess the performance characteristics of the Formula (1) compound as an imaging agent was measured by true-positive fraction (TPF equivalent to sensitivity) and false-positive fraction (FPF, equivalent to 1-specificity). The “truth standard” for determining true-positive cases and false-positive cases were histopathology results obtained subsequent to RP and EPLND. […]
Newly-diagnosed prostate cancer patients at high-risk for metastatic disease who were scheduled for RP with EPLND were enrolled in the study. […] Images of the patients were evaluated for visible uptake of the Formula (1) compound within the prostate gland and by regional assessment of nodal disease. […]
Patients (pts) with biopsy confirmed adenocarcinoma of the prostate scheduled for RP with extended pelvic lymph node dissection (EPLND) at high risk for disease outside of the prostate gland were eligible. […] SPECT/CT images were evaluated centrally by 3 readers blinded to clinical information and compared to on-site pathology assessments using a common scoring template, for instance, a Lesion Visualization Grading Score. […]
Three nuclear medicine experts and an MRI expert, blinded to clinical information, assessed ^99mTc-trofolastat uptake and morphologic features respectively in the prostate gland and lymph nodes. The findings were recorded using common anatomic template consisting of six prostate segments and pelvic lymph node regions. […]

[3] = tested on: lesions in lymph nodes and bone; experiment: Phase 2 study: whole-body planar and SPECT/CT imaging compared with bone scan; settings: post-injection, men with prostate cancer
Protocol: The methodology of Example 4 was used. Whole-body planar scintigraphic images using ^99mTc-MIP-1404 were evaluated by 3 readers blinded to clinical information to determine if disease was present beyond the pelvic region. The ^99mTc-MIP-1404 whole-body images were compared to the bone scan images.

[4] = Lobe Gleason Score ≧7, T/B threshold 5.9
[5] = Segment Dominant Grade ≧4, T/B threshold 5.9
[6] = Segment Gleason Score ≧7, T/B threshold 5.9

For “(OC-6-33)-tricarbonyl[N^2-{[(1S)-1,3-dicarboxypropyl]amino]carbamoyl}-L-γ-glutamyl-N^6,N^6-bis[(1-{2-[bis(carboxymethyl)amino]-2-oxoethyl]-1H-imidazol-2-yl-κN^3]methyl]-L-lysine-κN^6](^99mTc)(+)chloride [Formula (1)]”, the “identification of presence of primary prostate cancer” value ([1]; 8 patients, 20 mCi, SPECT/CT 2 hours after injection) was “correctly identified the presence of primary prostate cancer in all patients”, the “AUC ± SE (ROC)” value ([1]; Lobe Gleason Score ≧7) was 0.969 ± 0.04 and the Accuracy [1, 4] was 93.8% and 93.8 (15/18) %. For the same substance, the Sensitivity [1, 4] was 92.3%, the Specificity [1, 4] was 100% and the “AUC ± SE (ROC)” value ([1]; Segment Dominant Grade ≧4) was 0.942 ± 0.04. For the same substance, the Accuracy [1, 5] was 89.6% and 89.6 (43/48) %, the Sensitivity [1, 5] was 90.0% and the Specificity [1, 5] was 89.3%. For the same substance, the “AUC ± SE (ROC)” value ([1]; Segment Gleason Score ≧7) was 0.87 ± 0.05, the Accuracy [1, 6] was 81.3% and 81.3 (39/48) % and the Sensitivity [1, 6] was 71.4%. For the same substance, the Specificity [1, 6] was 95%, the “scan-detected lymph node involvement confirmed by histopathology” value ([2]; 8/16) was 50% and the “patients with lymph node involvement detected by scan” value ([2]; 16/53 patients) was 30%. The “patients in whom lymph node involvement was accurately characterized” value ([2]; 41/53 patients) was 77%, the “size of positive lymph nodes detected” value ([2]; patients positive by scan with matching positive histopathology) was 2 mm and the “earliest time lesions in lymph nodes and bone visualized by whole-body imaging” value [3] was 1 h.
